Where two headings read alike, the source gives them in different places. Values belong to the compound of their own block, whether it stands above or below them.
Experiments:
GPR139 = GPR139 (Homo sapiens (Human), UniProt Q6DWJ6); test: Agonistic activity on GPR139, calcium flux detection assay (FLIPR) in transfected CHO-K1 cells; format: cell-based; conditions: for EC50: calcium flux, CHO-K1 cells transfected with GPR139 plasmid, mean ± standard deviation; for Emax: CHO-K1
[1] = Pharmacokinetics and brain distribution in mice after single intraperitoneal injection; format: in vivo, male C57 mice; conditions: mouse, 10 mg/kg intraperitoneal; for half-life / Tmax / Cmax: C57, ip
BALB/c mice = test: Social interaction experiment in BALB/c mice (negative symptoms of schizophrenia); format: in vivo; conditions: for Social time: 10-minute period
From the text: The experimental subjects were 6-week-old male BALB/c wild-type mice, weighing approximately 22 grams, purchased from Shanghai Lingchang Biotechnology Co., Ltd. They were housed in SPF-grade breeding facilities, with 2 mice per cage, under a 12-hour light/dark cycle, with free access to food and water. All behavioral experiments in this project were completed during the light cycle. The experiment adhered to all relevant regulations and guidelines for animal welfare and ethics, and was supervised and inspected by the ethics committee and laboratory animal managers.
The length, width, and height of the behavioral box used in this experiment were all 40 cm. During the experiment, 4 mice were tested in 4 behavioral boxes at the same time. In this experiment, Etho Vision XT was used for experimental setup and video recording.
The mice were 5 weeks old when purchased. After one week of observation, the experiment was started when they were 6 weeks old and weighed about 22 grams. Before each experiment, the experimental mice were restricted from eating 18 hours in advance. On the day of the experiment, the mice were transferred to the behavioral laboratory to familiarize themselves with the environment 1 hour in advance. Subsequently, they were administered by intraperitoneal injection, and each mouse was returned to its original cage after injection. After 20 minutes, the experimental mice were placed in the behavioral box to acclimate for 10 minutes. Then, a stimulus mouse (from the same batch of BALB/c) was placed in a corner of the behavioral box, away from the experimental mouse. The two mice were allowed to explore freely for 10 minutes while their activity was monitored and recorded by a camera, and the data was archived.
The experimental data were analyzed. The social interaction time (including approaching, sniffing, grooming, chasing, attacking, etc.) was calculated for each experimental mouse over a 10-minute period, and the total social time of each mouse across different groups was analyzed by one-way analysis of variance.

[2] = male, brain tissue, mean n=3, read-out: T1/2 Brain (converted)
[3] = male, brain tissue, mean n=3, read-out: tmax Brain
[4] = male, plasma, mean n=3, read-out: T1/2 Plasma (converted)
[5] = male, plasma, mean n=3, read-out: tmax Plasma

GPR139, sequence (Q6DWJ6 whole entry, species assumed): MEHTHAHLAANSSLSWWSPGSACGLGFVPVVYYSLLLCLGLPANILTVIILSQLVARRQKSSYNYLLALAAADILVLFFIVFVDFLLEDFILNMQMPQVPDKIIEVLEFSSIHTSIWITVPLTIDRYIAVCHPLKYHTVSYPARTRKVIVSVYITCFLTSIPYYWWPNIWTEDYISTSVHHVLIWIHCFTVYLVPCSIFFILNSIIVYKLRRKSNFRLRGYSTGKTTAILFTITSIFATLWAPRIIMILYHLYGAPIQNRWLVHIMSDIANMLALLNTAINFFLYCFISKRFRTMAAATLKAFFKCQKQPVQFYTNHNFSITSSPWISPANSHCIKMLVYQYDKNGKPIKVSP

SMILES: Cc1ccc([C@H](C)NC(=O)Cn2ncc3c(C)cc(C)n3c2=O)cc1 [Compound I-18, (S)-2-(6,8-dimethyl-4-oxopyrrolo[1,2-d][1,2,4]triazin-3(4H)yl)-N-(1-(p-tolyl)ethyl)acetamide]
- EC50 (GPR139): 93 ± 15 nM

SMILES: C[C@H](NC(=O)Cn1ncc2cccn2c1=O)c1ccc(OC(F)(F)F)cc1 [Compound I-5, (S)-2-(4-oxopyrrolo[1,2-d][1,2,4]triazin-3(4H)yl)-N-(1-(4-(trifluoromethoxy)phenyl)ethyl)acetamide]
- One-way analysis of variance (social time) (BALB/c mice; 0.3 mg/kg intraperitoneal): No difference
- Social time (BALB/c mice; 0.3 mg/kg intraperitoneal): 107 ± 15 s
- One-way analysis of variance (social time) (BALB/c mice; 1 mg/kg intraperitoneal): No difference
- Social time (BALB/c mice; 1 mg/kg intraperitoneal): 103 ± 17 s
- Social time (BALB/c mice; 3 mg/kg intraperitoneal): 129 ± 12 s
- Effect on social disorders in mice (BALB/c mice; dose of 3 mg/kg): significant improvement effect

SMILES: Cc1ccc2cnn(CC(=O)N[C@H](c3ccc(F)cc3)C(C)C)c(=O)n12 [Compound I-39, (S)—N-(1-(4-fluorophenyl)-2-methylpropyl)-2-(6-methyl-4-oxopyrrolo[1,2-d][1,2,4]triazin-3(4H)yl)acetamide]
- Emax (GPR139): 94%
- EC50 (GPR139): 26 nM

SMILES: C[C@H](NC(=O)Cn1nnc2ccccc2c1=O)c1ccc(OC(F)(F)F)cc1 [TAK-041, reference compound]
- Kp ([1]; male, C57, brain and plasma, ip): 0.892
- Tmax [1, 3]: 30 min
- Tmax [1, 5]: 360 min
- Cmax Brain ([1]; brain tissue, mean n=3): 6754 ng/g
- T1/2 Brain ([1]; brain tissue, mean n=3): 108 h
- Cmax Plasma ([1]; plasma, mean n=3): 7057 ng/g
- Social time (BALB/c mice; 1 mg/kg intraperitoneal): 93 ± 26 s
- Social time (BALB/c mice; 3 mg/kg intraperitoneal): 129 ± 28 s

SMILES: Cc1ccc2cnn(CC(=O)N[C@@H](C)c3ccccc3)c(=O)n12 [Compound I-14, (S)-2-(6-methyl-4-oxopyrrolo[1,2-d][1,2,4]triazin-3(4H)yl)-N-(1-phenylethyl)acetamide]
- EC50 (GPR139): 13 ± 2 nM

Second part, the compound after the results:

- half-life [1, 2]: 31.8 min
- Tmax [1, 3]: 30 min
- Cmax ([1]; male, plasma, mean n=3): 868 ng/g
- half-life [1, 4]: 31.2 min
- Tmax [1, 5]: 30 min
- Cmax Brain ([1]; brain tissue, mean n=3): 1264 ng/g
SMILES: C[C@H](NC(=O)Cn1ncc2cccn2c1=O)c1ccc(C(F)(F)F)cc1 [Compound I-32, (S)-2-(4-oxopyrrolo[1,2-d][1,2,4]triazin-3(4H)yl)-N-(1-(4-(trifluoromethyl)phenyl)ethyl)acetamide]

- half-life [1, 2]: 19.2 min
- Tmax [1, 3]: 30 min
- Cmax ([1]; male, plasma, mean n=3): 700 ng/g
- half-life [1, 4]: 42 min
- Tmax [1, 5]: 30 min
- Cmax Brain ([1]; brain tissue, mean n=3): 713 ng/g
SMILES: C[C@H](NC(=O)Cn1ncc2cccn2c1=O)c1ccc(F)cc1 [Compound I-1]

- EC50 (GPR139): 111 ± 4 nM
SMILES: C[C@H](NC(=O)Cn1ncc2cccn2c1=O)c1ccccc1 [Compound I-4, (S)-2-(4-oxopyrrolo[1,2-d][1,2,4]triazin-3(4H)yl)-N-(1-phenylethyl)acetamide]

- EC50 (GPR139): 56 ± 11 nM
SMILES: Cc1cc(C)n2c(=O)n(CC(=O)N[C@@H](C)c3ccc(Cl)cc3)ncc12 [Compound I-22, (S)—N-1-(4-chlorophenyl)ethyl-2-(6,8-dimethyl-4-oxopyrrolo[1,2-d][1,2,4]triazin-3(4H)yl)acetamide]

- Emax (GPR139): 92%
- EC50 (GPR139): 120 nM
SMILES: CC(C)[C@H](NC(=O)Cn1ncc2cccn2c1=O)c1ccc(F)cc1 [Compound I-37, (S)—N-(1-(4-fluorophenyl)-2-methylpropyl)-2-(4-oxopyrrolo[1,2-d][1,2,4]triazin-3(4H)yl)acetamide]

From US20250163065A1, “PYRROLOTRIAZINONE COMPOUND, PHARMACEUTICAL COMPOSITION COMPRISING SAME, PREPARATION METHOD THEREFOR, AND USE THEREOF” (SHANGHAITECH UNIVERSITY, priority 2022, published 2025)
